# Results: ChEMBL document CHEMBL6134799, “Auto-RapTAC: A Versatile and Sustainable Platform for the Automated Rapid Synthesis and Evaluation of PROTAC” (J Med Chem, 2025)
# The source made the active and inactive calls. The rule behind the calls is not given here.
# Columns and labels:
# Format in all cases: cell-based
# [1] = target: Protein cereblon/Cyclin-dependent kinase 2 (Homo sapiens, UniProt P24941+Q96SW2); experiment: Auto-RapTAC activity at CRBN/CDK2 in human NCI-H1299 cells assessed as CDK2 degradation incubated for 24 hrs by Western blot analysis
# [2] = target: T1, Protein cereblon/B-cell lymphoma 6 protein (Homo sapiens, UniProt Q96SW2+P41182); experiment: Auto-RapTAC activity at CRBN/BCL6 in HEK293T cells expressing GFP-BCL6 (unknown origin) assessed as BCL6 degradation at 500 to 1000 nM incubated for 24 hrs by fluorescence based analysis; settings: dose 500-1000 nM
# HEK293T = experiment: Auto-RapTAC activity at MDM2/BCL6 in HEK293T cells expressing GFP-BCL6 (unknown origin) assessed as BCL6 degradation at 500 to 1000 nM incubated for 24 hrs by fluorescence based analysis; settings: Homo sapiens, dose 500-1000 nM
# [3] = target: von Hippel-Lindau disease tumor suppressor/B-cell lymphoma 6 protein (Homo sapiens, UniProt P40337+P41182); experiment: Auto-RapTAC activity at VHL/BCL6 in HEK293T cells expressing GFP-BCL6 (unknown origin) assessed as BCL6 degradation incubated for 24 hrs by fluorescence based analysis
# [4] = target: T1, Protein cereblon/B-cell lymphoma 6 protein; experiment: Auto-RapTAC activity at CRBN/BCL6 in HEK293T cells expressing GFP-BCL6 (unknown origin) assessed as BCL6 degradation incubated for 24 hrs by fluorescence based analysis
# HeLa [5] = experiment: (§1) Auto-RapTAC activity at MDM2/CDK12 in human HeLa cells assessed as CDK12 degradation incubated for 24 hrs by cytoblot analysis; settings: dose 500-1000 nM
# [6] = as §1
# HeLa [7] = experiment: Auto-RapTAC activity at MDM2/CDK12 in human HeLa cells assessed as CDK12 degradation at 500 to 1000 nM incubated for 24 hrs by cytoblot analysis relative to control; settings: dose 500-1000 nM
# [8] = target: T2, von Hippel-Lindau disease tumor suppressor/Cyclin-dependent kinase 12 (Homo sapiens, UniProt P40337+Q9NYV4); experiment: Auto-RapTAC activity at VHL/CDK12 in human HeLa cells assessed as CDK12 degradation at 500 to 1000 nM incubated for 24 hrs by cytoblot analysis relative to control; settings: dose 500-1000 nM
# Target sequence in this assay (P40337 whole entry, looked up): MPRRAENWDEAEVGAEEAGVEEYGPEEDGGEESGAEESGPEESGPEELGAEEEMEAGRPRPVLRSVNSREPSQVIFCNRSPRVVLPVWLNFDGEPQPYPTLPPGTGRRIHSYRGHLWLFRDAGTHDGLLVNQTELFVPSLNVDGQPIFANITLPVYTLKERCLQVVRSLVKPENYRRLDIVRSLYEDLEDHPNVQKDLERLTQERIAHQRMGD
# Target sequence in this assay (Q9NYV4 whole entry, looked up): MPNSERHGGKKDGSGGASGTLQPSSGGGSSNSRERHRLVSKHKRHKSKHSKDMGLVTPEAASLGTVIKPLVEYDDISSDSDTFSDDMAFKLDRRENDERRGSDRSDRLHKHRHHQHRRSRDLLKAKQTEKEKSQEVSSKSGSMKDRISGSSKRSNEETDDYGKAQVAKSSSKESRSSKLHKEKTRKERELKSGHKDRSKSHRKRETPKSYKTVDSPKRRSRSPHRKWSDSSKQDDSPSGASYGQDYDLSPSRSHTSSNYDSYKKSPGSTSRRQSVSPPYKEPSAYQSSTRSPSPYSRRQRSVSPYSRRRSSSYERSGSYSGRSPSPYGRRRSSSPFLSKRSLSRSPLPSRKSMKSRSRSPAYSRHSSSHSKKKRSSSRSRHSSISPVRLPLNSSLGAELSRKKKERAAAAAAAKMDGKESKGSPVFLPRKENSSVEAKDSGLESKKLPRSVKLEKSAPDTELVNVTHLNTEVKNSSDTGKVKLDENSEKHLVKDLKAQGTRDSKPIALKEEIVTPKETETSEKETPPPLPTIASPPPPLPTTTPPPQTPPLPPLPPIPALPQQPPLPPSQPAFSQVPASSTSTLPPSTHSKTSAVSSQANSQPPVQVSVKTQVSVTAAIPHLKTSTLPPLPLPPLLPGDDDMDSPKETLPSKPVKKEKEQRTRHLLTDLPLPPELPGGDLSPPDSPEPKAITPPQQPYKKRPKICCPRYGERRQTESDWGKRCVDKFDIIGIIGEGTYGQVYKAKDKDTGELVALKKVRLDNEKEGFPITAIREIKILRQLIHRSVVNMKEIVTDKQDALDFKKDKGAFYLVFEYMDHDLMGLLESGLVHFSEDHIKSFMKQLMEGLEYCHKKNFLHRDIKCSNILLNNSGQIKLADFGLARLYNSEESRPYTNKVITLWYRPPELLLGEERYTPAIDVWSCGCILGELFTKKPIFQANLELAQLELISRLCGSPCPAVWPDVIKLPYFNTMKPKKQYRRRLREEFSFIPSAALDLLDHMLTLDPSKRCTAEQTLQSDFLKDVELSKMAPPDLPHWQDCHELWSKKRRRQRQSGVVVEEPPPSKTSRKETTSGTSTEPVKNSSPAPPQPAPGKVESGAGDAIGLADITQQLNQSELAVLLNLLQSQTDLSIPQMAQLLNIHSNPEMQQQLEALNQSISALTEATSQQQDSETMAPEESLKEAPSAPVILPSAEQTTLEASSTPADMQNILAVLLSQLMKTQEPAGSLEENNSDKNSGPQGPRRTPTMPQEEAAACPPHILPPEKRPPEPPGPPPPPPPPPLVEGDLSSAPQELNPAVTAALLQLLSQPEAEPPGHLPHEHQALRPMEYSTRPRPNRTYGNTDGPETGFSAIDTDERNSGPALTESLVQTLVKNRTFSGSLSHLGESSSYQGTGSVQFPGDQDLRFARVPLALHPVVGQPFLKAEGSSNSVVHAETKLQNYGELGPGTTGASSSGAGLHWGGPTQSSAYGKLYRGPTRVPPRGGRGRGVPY
# [9] = target: T2, von Hippel-Lindau disease tumor suppressor/Cyclin-dependent kinase 12; experiment: Auto-RapTAC activity at VHL/CDK12 in human HeLa cells assessed as CDK12 degradation incubated for 24 hrs by cytoblot analysis
# T1 sequence (Q96SW2 whole entry, looked up, other chains not shown): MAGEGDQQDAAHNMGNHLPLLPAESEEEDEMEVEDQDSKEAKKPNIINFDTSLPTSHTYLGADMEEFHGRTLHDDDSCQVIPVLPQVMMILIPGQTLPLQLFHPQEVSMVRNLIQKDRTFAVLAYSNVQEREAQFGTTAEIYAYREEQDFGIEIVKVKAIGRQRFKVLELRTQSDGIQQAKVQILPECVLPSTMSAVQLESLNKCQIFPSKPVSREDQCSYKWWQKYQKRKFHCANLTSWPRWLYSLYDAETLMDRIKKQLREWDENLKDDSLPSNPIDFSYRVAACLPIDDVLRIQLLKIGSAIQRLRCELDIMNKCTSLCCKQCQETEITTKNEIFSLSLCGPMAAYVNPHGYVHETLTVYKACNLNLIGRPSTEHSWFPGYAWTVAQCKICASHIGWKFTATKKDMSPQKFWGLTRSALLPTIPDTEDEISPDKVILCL
# von Hippel-Lindau disease tumor suppressor/B-cell lymphoma 6 protein, sequence (P40337 whole entry, looked up, other chains not shown): as the sequence (P40337 whole entry, looked up) above
compound,measurement,setting,value
Cc1ncsc1-c1ccc([C@H](C)NC(=O)[C@@H]2C[C@@H](O)CN2C(=O)[C@H](NC(=O)CCCCCCCCCCn2cc(CCC(=O)N3CCC(NC(=O)c4n[nH]cc4NC(=O)c4c(F)cccc4Cl)CC3)nn2)C(C)(C)C)cc1,DC50,[1],362 nM
CNC(=O)COc1cc2cc(Nc3nc(N4CCC(c5cn(CCCCCCCCOc6ccc7c(c6)C(=O)N(C6CCC(=O)NC6=O)C7=O)nn5)CC4)ncc3Cl)ccc2n(C)c1=O (centres undefined),Activity,[2],Active
Cc1ncsc1-c1ccc([C@H](C)NC(=O)[C@@H]2C[C@@H](O)CN2C(=O)[C@H](NC(=O)CCCCCCCCCCn2cc(CCC(=O)N3CCC(NC(=O)c4n[nH]cc4NC(=O)c4c(Cl)cccc4Cl)CC3)nn2)C(C)(C)C)cc1,DC50,[1],454 nM
CNC(=O)COc1cc2cc(Nc3nc(N4CCC(c5cn(CCCCCCCCCCC(=O)N[C@@H](C(=O)N6C[C@H](O)C[C@H]6C(=O)N[C@@H](C)c6ccc(-c7scnc7C)cc6)C(C)(C)C)nn5)CC4)ncc3Cl)ccc2n(C)c1=O,Activity,HEK293T,Active
same,DC50,[3],3.1 nM
same,Activity,[3]; dose 500-1000 nM,Dose-dependent-effect; Hook Effect Was Not Observed
CNC(=O)COc1cc2cc(Nc3nc(N4CCC(c5cn(CCCCCCCCCOc6ccc7c(c6)C(=O)N(C6CCC(=O)NC6=O)C7=O)nn5)CC4)ncc3Cl)ccc2n(C)c1=O (centres undefined),Activity,[2],Active
CNC(=O)COc1cc2cc(Nc3nc(N4CCC(c5cn(CCCCCCCOc6ccc7c(c6)C(=O)N(C6CCC(=O)NC6=O)C7=O)nn5)CC4)ncc3Cl)ccc2n(C)c1=O (centres undefined),DC50,[4],7 nM
same,Activity,[4]; dose 500-1000 nM,Dose-dependent-effect; Hook Effect Was Not Observed
same,Activity,[2],Active
CCOC(=O)c1[nH]c2cc(Cl)ccc2c1C(C(=O)NC(C)(C)C)N(Cc1cc(F)c(F)c(F)c1)C(=O)CCCCCCn1cc(CCCOc2cc3[nH]c(CNc4nc(N5CCOCC5)nc5c4ncn5C(C)C)nc3cc2F)nn1 (centres undefined),Activity,HeLa [5],Dose-dependent-effect; Hook Effect Was Not Observed
same,DC50,[6],2.4 nM
same,Activity,HeLa [7],> 60%
CCOC(=O)c1[nH]c2cc(Cl)ccc2c1C(C(=O)NC(C)(C)C)N(Cc1cc(F)c(F)c(F)c1)C(=O)CCCCCn1cc(CCCOc2cc3[nH]c(CNc4nc(N5CCOCC5)nc5c4ncn5C(C)C)nc3cc2F)nn1 (centres undefined),Activity,HeLa [7],> 60%
CNC(=O)COc1cc2cc(Nc3nc(N4CCC(c5cn(CCCCCCCCCCOc6ccc7c(c6)C(=O)N(C6CCC(=O)NC6=O)C7=O)nn5)CC4)ncc3Cl)ccc2n(C)c1=O (centres undefined),Activity,[2],Active
Cc1ncsc1-c1ccc([C@H](C)NC(=O)[C@@H]2C[C@@H](O)CN2C(=O)[C@H](NC(=O)CCCCCCCCCCn2cc(CCCOc3cc4[nH]c(CNc5nc(N6CCOCC6)nc6c5ncn6C(C)C)nc4cc3F)nn2)C(C)(C)C)cc1,Activity,[8],> 60%
Cc1ncsc1-c1ccc([C@H](C)NC(=O)[C@@H]2C[C@@H](O)CN2C(=O)[C@H](NC(=O)COCCCCn2cc(CCCOc3cc4[nH]c(CNc5nc(N6CCOCC6)nc6c5ncn6C(C)C)nc4cc3F)nn2)C(C)(C)C)cc1,Activity,[8],> 60%
same,DC50,[9],2.7 nM
same,Activity,[9]; dose 500-1000 nM,Dose-dependent-effect; Hook Effect Was Not Observed
